Reference: patent publication US9790252B2, “2-fluorinated riboses and arabinoses and methods of use and synthesis” (CORNELL UNIVERSITY, priority 2009, dated 2017)

Assays:
HEK293 cells = assay: Toxicity to HEK293 cells (MTT); assay type: cell-based; conditions: for 100 μM absorbance / 100 μM relative viability: HEK293, 100 μM; for 100 μM absorbance / 100 μM relative viability / 500 μM absorbance / 500 μM relative viability: 12 hours; for 100 μM absorbance / 500 μM absorbance: MTT 1.5 hours, 570 nm; for 100 μM relative viability / 500 μM relative viability: control = 1; for 500 μM absorbance / 500 μM relative viability: HEK293, 500 μM; for EC50: 2′-deoxy-2′-fluoro-nucleosides and nucleotides
Experimental: 1. HEK293 cells were seeded in 96-well plate at a density of 25,000 cells/well the day before the experiment starts;
2. After the cells reach 50˜60% confluency, media was taken out, and 100 μL of fresh media was added to each well;
3. F-derivatives were plated at 100 and 500 μM (in duplicates) concentrations;
4. After 12 hours' incubation at 37° C., the media was taken out, 100 μL of fresh media was added to each well along with 20 μL of 5 mg/mL of MTT solution (in PBS);
5. After 1.5 hours' incubation at 37° C., media was taken out and 100 μL of DMSO was added to each well, the plate was mixed on shaker for 5 mins;
(§1) Absorbance was measured at 570 nm.
(§2) Assay for Determining Toxicity to HEK293 and Neuro2A Cells • 1. HEK293 and Neuro2A cells were seeded in 96-well plate at a density of 25,000 cells/well the day before the experiment starts; • 2. After the cells reach 50˜60% confluency, media was taken out, and 100 μL of fresh media was added to each well; • 3. Cl-derivatives were plated at 100 and 500 μM (in duplicates) concentrations; • 4. After 12 hours' incubation at 37° C., the media was taken out, 100 μL of fresh media was added to each well along with 20 μL of 5 mg/mL of MTT solution (in PBS); • 5. After 2 hours' incubation at 37° C., media was taken out and 100 μL of DMSO was added to each well, the plate was mixed on shaker for 5 mins; • 6. Absorbance was measured at 570 nm.

Neuro2A cells = assay: Toxicity to Neuro2A cells (MTT); assay type: cell-based; conditions: for 100 μM absorbance / 100 μM relative viability / 500 μM absorbance / 500 μM relative viability: 12 hours; for 100 μM absorbance / 500 μM absorbance: MTT 1.5 hours, 570 nm; for 100 μM relative viability / 500 μM relative viability: control = 1; for EC50: 2′-deoxy-2′-fluoro-nucleosides and nucleotides
Experimental: 6. Neuro2A cells were seeded in 96-well plate at a density of 25,000 cells/well the day before the experiment starts;
7. After the cells reach 50˜60% confluency, media was taken out, and 100 μL of fresh media was added to each well;
8. […]
9. After 12 hours' incubation at 37° C., the media was taken out, 100 μL of fresh media was added to each well along with 20 μL of 5 mg/mL of MTT solution (in PBS);
10. After 1.5 hours' incubation at 37° C., media was taken out and 100 μL of DMSO was added to each well, the plate was mixed on shaker for 5 mins;
as §1
as §2, with “Cl-derivatives were plated at 100 and 500 μM (in duplicates) concentrations; • 4.” left out

SirT1 = target: T1, SirT1 (Homo sapiens, UniProt Q96EB6); assay: SirT1 activity assay (HPLC of 2′- and 3′-AADPR); assay type: biochemical; conditions: 200 μM NAD+, 100 μM JB12 peptide, pH 7.5, 30 mins at 37° C.
T1 sequence (Q96EB6 1-747): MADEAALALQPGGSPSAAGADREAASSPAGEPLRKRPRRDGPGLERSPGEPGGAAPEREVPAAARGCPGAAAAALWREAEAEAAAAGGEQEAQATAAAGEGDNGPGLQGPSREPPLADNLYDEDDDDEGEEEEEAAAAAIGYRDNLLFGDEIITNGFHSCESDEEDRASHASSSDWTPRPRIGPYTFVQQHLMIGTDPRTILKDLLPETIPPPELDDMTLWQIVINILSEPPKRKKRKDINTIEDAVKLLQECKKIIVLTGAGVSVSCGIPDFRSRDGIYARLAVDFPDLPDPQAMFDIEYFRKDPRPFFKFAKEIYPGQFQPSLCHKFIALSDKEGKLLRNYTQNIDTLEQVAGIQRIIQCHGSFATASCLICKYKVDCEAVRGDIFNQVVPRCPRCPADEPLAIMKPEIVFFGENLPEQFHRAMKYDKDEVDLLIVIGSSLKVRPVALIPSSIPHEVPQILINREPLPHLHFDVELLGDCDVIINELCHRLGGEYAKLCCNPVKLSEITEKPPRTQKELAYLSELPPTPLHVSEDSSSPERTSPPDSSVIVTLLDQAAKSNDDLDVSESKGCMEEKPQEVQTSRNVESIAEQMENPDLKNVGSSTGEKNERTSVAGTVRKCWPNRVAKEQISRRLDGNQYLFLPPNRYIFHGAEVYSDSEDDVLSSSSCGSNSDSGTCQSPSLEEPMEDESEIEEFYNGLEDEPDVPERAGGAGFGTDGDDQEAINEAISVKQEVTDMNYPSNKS
Experimental: (§3) Reactions containing 200 μM NAD^+, 100 μM JB12 peptide, and 100 mM phosphate buffer at pH 7.5, with varying concentrations of 2′-deoxy-2′-fluoro-nucleosides or nucleotides were initiated by addition of SirT1 enzyme to a concentration of 12.9 μM. Reactions were incubated for 30 mins at 37° C. and quenched by addition of trifluoroacetic acid to pH 2. After centrifugation to remove precipitates, reactions were injected on HPLC for activity analysis. Production of 2′- and 3′-AADPR were analyzed at 260 nm.
as §3, with “SirT1 Activity Assay: Reactions containing” for “Reactions containing”, “concentrations of 2′-deoxy-2′-chloro-nucleosides were initiated” for “concentrations of 2′-deoxy-2′-fluoro-nucleosides or nucleotides were initiated”

HEK293 and Neuro2A cells = assay: Immucillin-H effects on β-ara-Cl-NR toxicity (MTT); assay type: cell-based; conditions: 10 μM ImmH with 5-100 μM β-ara-Cl-NR, 12 hours
Experimental: as §2, with “We speculated that like NR, the chloro derivatives might degrade in cells by action of an enzyme that converts it” for “Assay for Determining Toxicity”, “ribose-1-phosphate. This enzyme is called purine nucleoside phosphorylase (PNP). Immucillin-H (gift of Schramm lab) is a potent inhibitor of PNP. […] Assay:” for “HEK293 and Neuro2A Cells”, “β-ara-Cl-NR (black) and ImmH (bold)” for “Cl-derivatives”, “according to the following Table 12:” for “at 100 and 500 μM (in duplicates) concentrations;”

SirT2 = target: T2, SirT2 (Homo sapiens, UniProt Q8IXJ6); assay: SirT2 activity assay (HPLC of 2′- and 3′-AADPR); assay type: biochemical; conditions: 800 μM NAD+, 500 μM H3 peptide, pH 7.5
T2 sequence (Q8IXJ6 1-389): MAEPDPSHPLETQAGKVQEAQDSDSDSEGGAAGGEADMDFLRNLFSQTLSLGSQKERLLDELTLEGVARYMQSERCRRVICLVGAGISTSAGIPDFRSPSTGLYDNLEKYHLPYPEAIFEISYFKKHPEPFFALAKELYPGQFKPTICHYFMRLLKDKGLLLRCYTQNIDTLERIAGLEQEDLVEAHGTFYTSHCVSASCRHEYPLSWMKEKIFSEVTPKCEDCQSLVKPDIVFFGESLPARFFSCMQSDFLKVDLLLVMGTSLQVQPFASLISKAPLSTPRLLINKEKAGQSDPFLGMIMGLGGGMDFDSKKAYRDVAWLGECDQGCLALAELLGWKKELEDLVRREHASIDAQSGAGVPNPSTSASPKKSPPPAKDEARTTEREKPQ
Experimental: as §3, with “containing 800” for “containing 200”, “NAD^+, 500” for “NAD^+, 100”, “μM H3” for “μM JB12”, “of SirT2” for “of SirT1”, “of 16.6” for “of 12.9”, “for 45” for “for 30”
SirT2 Activity Assay: Reactions containing 800 μM NAD^+, 500 μM H3 peptide, and 100 mM phosphate buffer at pH 7.5, with varying concentrations of 2′-deoxy-2′-chloro-nucleosides were initiated by addition of SirT2 enzyme to a concentration of 16.6 μM. Reactions were incubated for 45 mins at 37° C. and quenched by addition of trifluoroacetic acid to pH 2. After centrifugation to remove precipitates, reactions were injected on HPLC for activity analysis. Production of 2′- and 3′-AADPR were analyzed at 260 nm.

[1] = target: T3, cell developmental protein 38 (CD38) (Homo sapiens, UniProt P28907); conditions: mechanism-based inhibitor; previous studies (Refs. 10, 12); read-out: apparent Ki; cited from earlier work
T3 sequence (P28907 1-300): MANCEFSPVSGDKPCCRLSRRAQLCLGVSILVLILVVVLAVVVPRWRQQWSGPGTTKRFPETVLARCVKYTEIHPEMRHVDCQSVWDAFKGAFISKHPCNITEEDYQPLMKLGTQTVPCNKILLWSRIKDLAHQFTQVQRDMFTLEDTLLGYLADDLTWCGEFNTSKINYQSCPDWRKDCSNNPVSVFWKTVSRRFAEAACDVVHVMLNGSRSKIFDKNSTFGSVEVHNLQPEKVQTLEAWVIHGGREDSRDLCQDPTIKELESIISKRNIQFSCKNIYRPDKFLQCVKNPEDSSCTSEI

**Q.** Which results are given for NC(=O)c1ccc[n+]([C@@H]2O[C@H](COP(=O)([O-])OP(=O)(O)OC[C@H]3O[C@@H](n4cnc5c(N)ncnc54)[C@H](O)[C@@H]3O)[C@@H](O)C2(F)F)c1 [gem-diF-NAD, 2′-deoxy-2′,2′-difluoro-NAD^+]?
**A.** 100 μM absorbance (HEK293 cells): 1.797; 100 μM relative viability (HEK293 cells): 0.7905; 500 μM absorbance (HEK293 cells): 1.556; 500 μM relative viability (HEK293 cells): 0.6844; EC50 (HEK293 cells; Homo sapiens, HEK293, HEK293): 1130 µM; 100 μM absorbance (Neuro2A cells): 1.5765; 100 μM relative viability (Neuro2A cells): 0.648; 500 μM absorbance (Neuro2A cells): 1.1916; 500 μM relative viability (Neuro2A cells): 0.49; EC50 (Neuro2A cells; Mus musculus, N2a): 400 µM; Ki (SirT1): 60 µM

**Q.** For O=c1[nH]cnc2c([C@@H]3N[C@H](CO)[C@@H](O)[C@H]3O)c[nH]c12 [Immucillin-H], which “effect of PNP inhibition on β-ara-Cl-NR toxicity” value (HEK293 and Neuro2A cells) is on record?
**A.** The value was “largely incapable of preventing this toxicity”.

**Q.** For NC(=O)c1ccc[n+]([C@@H]2O[C@H](COP(=O)([O-])O)C(O)C2F)c1 (stereo partly drawn) [ara-F-NMN, 2′-deoxy-2′-fluoro-arabino-nicotinamide mononucleotide], which “SirT2 inhibition (in words)” value (SirT2) is on record?
**A.** The value was “no inhibition”.

**Q.** And the “100 μM absorbance” value (HEK293 cells)?
**A.** The value was 1.267.

**Q.** What about the “100 μM relative viability” value (HEK293 cells) of the same compound?
**A.** The value was 0.5574.

**Q.** And the “500 μM absorbance” value (HEK293 cells)?
**A.** Its value is 0.

**Q.** And the “500 μM relative viability” value (HEK293 cells)?
**A.** Its value is 0.

**Q.** What about the EC50 (HEK293 cells; HEK293) of the same compound?
**A.** Its EC50 is 88 µM.

**Q.** And the “100 μM absorbance” value (Neuro2A cells)?
**A.** Its value is 2.126.

**Q.** And the “100 μM relative viability” value (Neuro2A cells)?
**A.** The value was 0.874.

**Q.** What about the “500 μM absorbance” value (Neuro2A cells) of the same compound?
**A.** The value was 0.0143.

**Q.** And the “500 μM relative viability” value (Neuro2A cells)?
**A.** The value was 0.006.

**Q.** What about the EC50 (Neuro2A cells) of the same compound?
**A.** The EC50 was 164 µM.

**Q.** What about the Ki [1] of the same compound?
**A.** The Ki was 0.061 µM.
